According to paper PMC5933261, “A phase 1 dose-escalation study of veliparib with bimonthly FOLFIRI in patients with advanced solid tumours” (British Journal of Cancer, 2018):

Tests used:
[1] = system: patients with advanced solid tumours; assay: Treatment-emergent adverse events (NCI CTCAE version 4.0); format: in vivo, human
Source text: The sample size was based on clinical justification.

[2] = system: patients with advanced solid tumours; parameters: method as in PMID 26842236; details: veliparib 40 mg BID days 1–14 of a 21-day cycle with irinotecan 100 mg/m^2 day 1 and 8; cited from earlier work
[3] = veliparib plus FOLFIRI, Combined RP2D n = 31, all grades
[4] = veliparib plus FOLFIRI, Combined RP2D n = 31, grade 3/4
[5] = veliparib plus FOLFIRI, Part 1 n = 67, all grades
[6] = veliparib plus FOLFIRI, Part 1 n = 67, grade 3/4
[7] = veliparib plus FOLFIRI, Parts 2 and 3 n = 25, all grades
[8] = veliparib plus FOLFIRI, Parts 2 and 3 n = 25, grade 3/4
[9] = veliparib plus FOLFIRI, Total n = 92, all grades
[10] = veliparib plus FOLFIRI, Total n = 92, grade 3/4
[11] = veliparib plus FOLFIRI, all treated patients (92)
[12] = veliparib plus FOLFIRI, all treated patients (92), any grade

C[C@]1(c2nc3c(C(N)=O)cccc3[nH]2)CCCN1 [veliparib, Veliparib]
Patients with TEAEs that led to death within 30 days of the last veliparib dose ([1]; considered not related or probably not related to veliparib and FOLFIRI): Four | Patients with a TEAE that led to death within 63 days after the last veliparib dose ([1]; disease progression, considered not related or probably not related): One | TEAE Alopecia [1, 3]: 16 (51.6) n (%) | TEAE Anaemia [1, 3]: 15 (48.3) n (%) | TEAE Constipation [1, 3]: 9 (29.0) n (%) | TEAE Decreased appetite [1, 3]: 7 (22.5) n (%) | TEAE Diarrhoea [1, 3]: 17 (54.8) n (%) | TEAE Fatigue [1, 3]: 13 (41.9) n (%) | TEAE Nausea [1, 3]: 23 (74.1) n (%) | TEAE Neutropenia [1, 3]: 25 (80.6) n (%) | TEAE Vomiting [1, 3]: 14 (45.1) n (%) | TEAE Alopecia [1, 4]: 0 (0.0) n (%) | TEAE Anaemia [1, 4]: 5 (16.1) n (%) | TEAE Constipation [1, 4]: 0 (0.0) n (%) | TEAE Decreased appetite [1, 4]: 0 (0.0) n (%) | TEAE Diarrhoea [1, 4]: 5 (16.1) n (%) | TEAE Fatigue [1, 4]: 0 (0.0) n (%) | TEAE Nausea [1, 4]: 1 (3.2) n (%) | TEAE Neutropenia [1, 4]: 17 (54.8) n (%) | TEAE Vomiting [1, 4]: 1 (3.2) n (%) | TEAE Alopecia [1, 5]: 31 (46.2) n (%) | TEAE Anaemia [1, 5]: 27 (40.2) n (%) | TEAE Constipation [1, 5]: 18 (26.8) n (%) | TEAE Decreased appetite [1, 5]: 18 (26.8) n (%) | TEAE Diarrhoea [1, 5]: 40 (59.7) n (%) | TEAE Fatigue [1, 5]: 27 (40.2) n (%) | TEAE Nausea [1, 5]: 41 (61.1) n (%) | TEAE Neutropenia [1, 5]: 41 (61.1) n (%) | TEAE Vomiting [1, 5]: 32 (47.7) n (%) | TEAE Alopecia [1, 6]: 0 (0.0) n (%) | TEAE Anaemia [1, 6]: 7 (10.4) n (%) | TEAE Constipation [1, 6]: 1 (1.4) n (%) | TEAE Decreased appetite [1, 6]: 0 (0.0) n (%) | TEAE Diarrhoea [1, 6]: 5 (7.4) n (%) | TEAE Fatigue [1, 6]: 3 (4.4) n (%) | TEAE Nausea [1, 6]: 2 (2.9) n (%) | TEAE Neutropenia [1, 6]: 26 (38.8) n (%) | TEAE Vomiting [1, 6]: 3 (4.4) n (%) | TEAE Alopecia [1, 7]: 9 (36.0) n (%) | TEAE Anaemia [1, 7]: 14 (56.0) n (%) | TEAE Constipation [1, 7]: 10 (40.0) n (%) | TEAE Decreased appetite [1, 7]: 13 (52.0) n (%) | TEAE Diarrhoea [1, 7]: 16 (64.0) n (%) | TEAE Fatigue [1, 7]: 17 (68.0) n (%) | TEAE Nausea [1, 7]: 15 (60.0) n (%) | TEAE Neutropenia [1, 7]: 20 (80.0) n (%) | TEAE Vomiting [1, 7]: 12 (48.0) n (%) | TEAE Alopecia [1, 8]: 0 (0.0) n (%) | TEAE Anaemia [1, 8]: 2 (8.0) n (%) | TEAE Constipation [1, 8]: 1 (4.0) n (%) | TEAE Decreased appetite [1, 8]: 0 (0.0) n (%) | TEAE Diarrhoea [1, 8]: 0 (0.0) n (%) | TEAE Fatigue [1, 8]: 0 (0.0) n (%) | TEAE Nausea [1, 8]: 1 (4.0) n (%) | TEAE Neutropenia [1, 8]: 13 (52.0) n (%) | TEAE Vomiting [1, 8]: 2 (8.0) n (%) | TEAE Alopecia [1, 9]: 40 (43.5) n (%) | TEAE Anaemia [1, 9]: 41 (44.6) n (%) | TEAE Constipation [1, 9]: 28 (30.4) n (%) | TEAE Decreased appetite [1, 9]: 31 (33.6) n (%) | TEAE Diarrhoea [1, 9]: 56 (60.9) n (%) | TEAE Fatigue [1, 9]: 44 (47.8) n (%) | TEAE Nausea [1, 9]: 56 (60.9) n (%) | TEAE Neutropenia [1, 9]: 61 (66.3) n (%) | TEAE Vomiting [1, 9]: 44 (47.8) n (%) | TEAE Alopecia [1, 10]: 0 (0.0) n (%) | TEAE Anaemia [1, 10]: 9 (9.8) n (%) | TEAE Decreased appetite [1, 10]: 0 (0.0) n (%) | TEAE Diarrhoea [1, 10]: 5 (5.4) n (%) | TEAE Fatigue [1, 10]: 3 (3.2) n (%) | TEAE Nausea [1, 10]: 3 (3.2) n (%) | TEAE Neutropenia [1, 10]: 39 (42.4) n (%) | TEAE Vomiting [1, 10]: 5 (5.4) n (%) | Grade 3 or 4 TEAE anaemia [1, 11]: 9.8% | Grade 3 or 4 TEAE neutropenia [1, 11]: 42.4% | Patients who discontinued veliparib due to TEAEs [1, 11]: 5.4% | Patients with ≥1 grade 3 or 4 TEAEs [1, 11]: 67.4% | Patients with ≥1 treatment-emergent serious AEs (SAEs) [1, 11]: 38.0% | Serious AE PD [1, 11]: 2.2% | Serious AE abdominal pain [1, 11]: 2.2% | Serious AE dehydration [1, 11]: 2.2% | Serious AE febrile neutropenia [1, 11]: 2.2% | Serious AE intestinal obstruction [1, 11]: 2.2% | Serious AE malignant neoplasm progression [1, 11]: 2.2% | Serious AE nausea [1, 11]: 2.2% | Serious AE pyrexia [1, 11]: 4.3% | Serious AE vomiting [1, 11]: 3.3% | TEAE alopecia, patients [1, 12]: 43.5% | TEAE anaemia, patients [1, 12]: 44.6% | TEAE diarrhoea, patients [1, 12]: 60.9% | TEAE fatigue, patients [1, 12]: 47.8% | TEAE nausea, patients [1, 12]: 60.9% | TEAE neutropenia, patients [1, 12]: 66.3% | TEAE vomiting, patients [1, 12]: 47.8% | Patients who experienced one or more TEAEs ([1]; veliparib plus FOLFIRI, treated patients (92)): All treated patients | Tolerability [2]: well tolerated
